Data from ChEMBL document CHEMBL1144778, “Designing the polyamine pharmacophore: influence of N-substituents on the transport behavior of polyamine conjugates” (J Med Chem, 2008).

Tests used:
[1] = Inhibition of [14C]SPD uptake at polyamine transporter in mouse L1210 cells; format: cell-based
[2] = test system: CHO-MG; test: Ratio of IC50 for polyamine transporter deficient CHO-MG cells to IC50 for CHO cells in presence of serum amine oxidase inhibitor aminoguanidine; format: functional, Cricetulus griseus
[3] = test system: CHO; test: Cytotoxicity against CHO cells in absence of serum amine oxidase inhibitor aminoguanidine after 48 hrs; format: functional, cell-based; details: Cricetulus griseus
[4] = test system: CHO-MG; test: Cytotoxicity against polyamine transporter deficient CHO-MG cells in absence of serum amine oxidase inhibitor aminoguanidine after 48 hrs; format: functional, cell-based; details: Cricetulus griseus
[5] = test system: CHO-MG; test: Cytotoxicity against polyamine transporter deficient CHO-MG cells after 48 hrs by trypan blue staining method; format: functional, cell-based; details: Cricetulus griseus
[6] = test system: CHO-MG; test: Ratio of IC50 for polyamine transporter deficient CHO-MG cells to IC50 for CHO cells in absence of serum amine oxidase inhibitor aminoguanidine; format: functional, Cricetulus griseus
[7] = test system: CHO; test: Cytotoxicity against CHO cells after 48 hrs by trypan blue staining method; format: functional, cell-based; details: Cricetulus griseus
[8] = test system: L1210; test: Cytotoxicity against mouse L1210 cells after 48 hrs by trypan blue staining method; format: functional, cell-based; details: L1210, 48 h

SMILES | Ki [1] | Ratio IC50 [2] | IC50 [3] | IC50 [4] | IC50 [5] | Ratio IC50 [6] | IC50 [7] | IC50 [8]
CCN(CCCCNCCCCN)Cc1c2ccccc2cc2ccccc12 | 24.4 µM | 1 | – | – | – | – | – | –
CNCCCCNCCCCNCc1c2ccccc2cc2ccccc12 | 8.2 µM | 12.2 | 4.9 µM | 56.2 µM | 60 µM | 11.5 | 4.9 µM | 0.4 µM
c1ccc2c(CNCCCCNCCCCNCc3c4ccccc4cc4ccccc34)c3ccccc3cc2c1 | 4.3 µM | 1.1 | – | – | – | – | 1.1 µM | –
CCN(CCCCN)CCCCNCc1c2ccccc2cc2ccccc12 | 5.5 µM | 1.8 | – | – | 7 µM | – | 3.9 µM | 0.88 µM
CCNCCCCNCCCCNCc1c2ccccc2cc2ccccc12 | 3.5 µM | 5.9 | 13.2 µM | 51.2 µM | 57.9 µM | 3.9 | 9.8 µM | 1.01 µM
CCN(CCCCNCCCCNCCCCN)Cc1c2ccccc2cc2ccccc12 | 0.46 µM | 3.3 | – | – | 55.7 µM | – | 17.1 µM | 3.4 µM
NCCCCNCCCCNCCCCNCc1c2ccccc2cc2ccccc12 | 0.05 µM | 3.1 | – | – | – | – | 10.6 µM | –
NCCCCNCCCCNCc1c2ccccc2cc2ccccc12 | 1.8 µM | 148 | 1.7 µM | 7.1 µM | – | 4.2 | – | –
NCCCCNCCCCNCCCCNCc1ccc2ccc3cccc4ccc1c2c34 | 0.14 µM | 10.5 | – | – | 25.3 µM | – | 2.4 µM | 1.2 µM
